In PubChem BioAssay (NCI):
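Assay format: 96-well plates, 48-hour exposure. The concentration for full growth arrest is given as TGI.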

Assays:
Experiment in all cases: NCI anticancer screen, dose series, 48 h
[1] = test system: DLD-1 colon
[2] = test system: HOP-18 NSCLC
[3] = test system: KM20L2 colon
[4] = test system: SNB-78 CNS
[5] = test system: DMS 114 small cell lung

| SMILES | TGI [1] [µM] | TGI [2] [µM] | TGI [3] [µM] | TGI [4] [µM] | TGI [5] [µM] |
| --- | --- | --- | --- | --- | --- |
| Nc1nc(Cl)cc(NCCCCCCCCCCNc2cc(Cl)nc(N)n2)n1 | > 100 | > 100 | > 100 | > 100 | – |
| Cc1ccc(C)c(NC(=O)CCc2n[nH]c(=S)o2)c1 | > 100 | > 100 | > 100 | > 100 | > 100 |
| COS(=O)CCOC(=O)c1ccccc1SSc1ccccc1C(=O)OCCS(=O)OC (stereo unspecified) | > 100 | > 100 | > 100 | > 100 | 34.1 |
| COc1ccccc1OCC(COC(=O)Nc1ccc(C)cc1)OC(=O)Nc1ccc(C)cc1 (stereo unspecified) | 31.8 | 40.3 | 50 | 91.6 | 29.3 |
| Clc1cccc(C2SCc3nc4ccccc4n32)c1Cl (stereo unspecified) | 32.4 | 33.1 | 34.7 | 55.6 | 36.4 |
| C/C(=N\NC(=S)Nc1ccc([N+](=O)[O-])cc1S(=O)(=O)O)c1ccccn1 | > 100 | > 100 | 67.2 | > 100 | > 100 |
| O=C(O)CNS(=O)(=O)c1ccc(NC(=O)c2cccc([N+](=O)[O-])c2)cc1 | > 100 | > 100 | > 100 | – | – |
| CC1=C[C@H]2C[C@@]3(C)O[C@@H]([C@]4(C)CC[C@H]([C@@H](C)C(=O)O)OO4)CC3C(C)(C)[C@H]2CC1 (stereo partly specified) | 2.47 | – | 3.91 | 2.78 | 3.32 |
| N#CC(/C(=N\NC(N)=S)C(=O)NC1C2CC3CC(C2)CC1C3)c1ccc(Cl)cc1 (stereo unspecified) | > 100 | > 100 | > 100 | > 100 | > 100 |
| O=C(O)c1oc2ccc([N+](=O)[O-])c3c2c1CCC3 | > 100 | > 100 | > 100 | > 100 | > 100 |
| C(=C1/CCCCC([n+]2ccccc2)=N1)/c1ccccc1 | > 100 | > 100 | > 100 | > 100 | > 100 |
| O=C(NNc1ccc([N+](=O)[O-])cc1)C1OC(CO)C(O)C1O (stereo unspecified) | > 100 | > 100 | > 100 | > 100 | > 100 |
| C[P+](C)(CC(F)(F)F)c1ccccc1 | > 100 | > 100 | > 100 | > 100 | > 100 |
| NC(=O)Cn1c(=O)[nH]c(=O)c2[nH]cnc21 | – | > 100 | > 100 | – | > 100 |
| COc1ccc(-c2nc(N)nc(-c3cc(C)ccc3O)c2Cl)cc1 | > 100 | > 100 | > 100 | 81.9 | > 100 |
| O=C1CCCC2COc3ccc(O)c1c32 (stereo unspecified) | > 100 | – | > 100 | > 100 | > 100 |
| C/C(=N\N=C(N)N)c1sc(-c2nc(C)c(/C(C)=N/N=C(N)N)s2)nc1C | > 100 | > 100 | > 100 | > 100 | – |
| Cc1ccc(NC(=O)NC23CC4CC(CC(F)(C4)C2)C3)cc1 | > 100 | – | > 100 | > 100 | > 100 |
